# Target: T1, human Syk (GST-Syk) (Homo sapiens, UniProt P43405)
# T1 construct: A cDNA fragment encoding human Syk openreading frame was cloned; made in house; host or cells: Sf21 insect cells (baculovirus, transfer vector pAcG2T)
# Assay: Syk tyrosine kinase inhibitory assay
# Format: biochemical
# Settings: Table 11; read-out: Activity grade
# Summary of the method: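 Readout: streptavidin-captured biotin-AL peptide probed with europium-4G10 anti-phosphotyrosine, time-resolved fluorescence (ex 340/em 615 nm). Reaction ran 1 h at room temperature with 30 μM ATP, 3 μM peptide, 0.65 nM Sf21-expressed GST-Syk and 0.25% DMSO, pH 8.0.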
row,IC50 [nM],SMILES
1,500 to 2000,COc1ccc(-c2cc3nccn3c(Nc3ccc(CCN4CCOCC4)cc3)n2)cc1OC [Example 12-1]
2,< 500,COc1ccc(-c2cc3nccn3c(Nc3ccc4[nH]ncc4c3)n2)cc1OC [Example 12-2]
3,< 500,COc1ccc(-c2cc3nccn3c(Nc3ccccn3)n2)cc1OC [Example 12-3]
4,< 500,COc1ccc(Nc2nc(-c3ccc(OC)c(OC)c3)cc3nccn23)cn1 [Example 12-4]
5,500 to 2000,COC(=O)c1ccc(Nc2nc(-c3ccc(OC)c(OC)c3)cc3nccn23)s1 [Example 12-5]
6,500 to 2000,CCOc1ccc2nc(Nc3nc(-c4ccc(OC)c(OC)c4)cc4nccn34)sc2c1 [Example 12-6]
7,< 500,COc1ccc(-c2cc3nccn3c(Nc3cccnc3)n2)cc1OC [Example 12-7]
8,< 500,COc1ccc(-c2cc3nccn3c(Nc3ccncc3)n2)cc1OC [Example 12-8]
9,< 500,COc1ccc(-c2cc3nccn3c(Nc3ccc(Br)cn3)n2)cc1OC [Example 12-9]
10,< 500,COc1ccc(-c2cc3nccn3c(Nc3ccccc3)n2)cc1O [Example 12-10]
11,< 500,COc1ccc(-c2cc3nccn3c(Nc3cccc(Cl)c3)n2)cc1OC [Example 12-11]
12,< 500,COc1ccc(-c2cc3nccn3c(Nc3ccc(Br)cc3)n2)cc1OC [Example 12-12]
13,500 to 2000,COc1ccc(-c2cc3nccn3c(Nc3cccc(C(F)(F)F)c3)n2)cc1OC [Example 12-13]
14,< 500,COc1ccc(-c2cc3nccn3c(Nc3cc(OC)c(OC)c(OC)c3)n2)cc1OC [Example 12-14]
15,< 500,COc1ccc(Nc2nc(-c3ccc(OC)c(OC)c3)cc3ncnn23)cc1 [Example 12-15]
16,< 500,COc1cc(-c2cc3nccn3c(Nc3ccccc3)n2)ccc1OCCCN1CCOCC1 [Example 12-16]
17,< 500,COc1ccc(-c2cc3nccn3c(Nc3ccccc3)n2)cc1OC(C)=O [Example 12-17]
18,500 to 2000,COc1cc(-c2cc3nccn3c(Nc3ccccc3)n2)ccc1OCc1ccccc1 [Example 12-18]
19,< 500,COc1cc(-c2cc3nccn3c(Nc3ccccc3)n2)ccc1O [Example 12-19]
20,< 500,CCOCCOc1ccc(-c2cc3nccn3c(Nc3ccccc3)n2)cc1OC [Example 12-20]
21,500 to 2000,c1ccc(Nc2nc(-c3ccc4c(c3)OCCO4)cc3nccn23)cc1 [Example 12-21]
22,500 to 2000,c1ccc(Nc2nc(-c3ccc4c(c3)OCO4)cc3nccn23)cc1 [Example 12-22]
23,< 500,CCOc1ccc(-c2cc3nccn3c(Nc3ccccc3)n2)cc1OCC [Example 12-23]
24,500 to 2000,CCOCCOc1ccc(-c2cc3nccn3c(Nc3ccccc3)n2)cc1OCCOCC [Example 12-24]
25,< 500,COc1ccc(-c2cc3nccn3c(Nc3ccccc3)n2)cc1OCCN1CCOCC1 [Example 12-25]
26,< 500,COc1cc(-c2cc3nccn3c(Nc3ccccc3)n2)ccc1OCCN1CCOCC1 [Example 12-26]
27,2000 to 10000,COc1ccc(-c2cc3nccn3c(Nc3ccccc3)n2)cc1OCc1ccccc1 [Example 12-27]
28,< 500,CCOCCOc1cc(-c2cc3nccn3c(Nc3ccccc3)n2)ccc1OC [Example 12-28]

# Same assay, conditions: Table 17; IC50 classes; read-out: Activity grade
row,IC50 [nM],SMILES
1,< 500,COc1ccc(-c2cc3nccn3c(Nc3cc(N)ccc3C(N)=O)n2)cc1OC [Example 11]

# Same assay, conditions: in vitro; compounds as yielded by solid phase synthesis, purity about 40 to 90%; read-out: Activity grade (IC50 class)
row,IC50 [nM],SMILES
1,< 500,CCCCNS(=O)(=O)c1cccc(Nc2nc(-c3ccc(OC)c(OC)c3)cc3nccn23)c1 [Example 11-73]
2,< 500,COc1ccc(-c2cc3nccn3c(Nc3ccc(NCCN(C)C)cc3)n2)cc1OC [Example 11-74]
3,< 500,COc1ccc(Nc2nc(-c3ccc(OC)c(OC)c3)cc3nccn23)c(C(=O)O)c1 [Example 11-75]
4,< 500,COc1ccc(-c2cc3nccn3c(Nc3ccc(S(N)(=O)=O)cc3)n2)cc1OC [Example 11-76]
5,< 500,COc1ccc(-c2cc3nccn3c(Nc3ccccc3C(=O)O)n2)cc1OC [Example 11-77]
6,< 500,COc1ccc(-c2cc3nccn3c(Nc3ccc(I)cc3C(N)=O)n2)cc1OC [Example 11-78]
7,< 500,COc1ccc(-c2cc3nccn3c(Nc3cccc(N(C)C)c3)n2)cc1OC [Example 11-81]
8,< 500,COc1ccc(-c2cc3nccn3c(Nc3ccc(NCCN4CCOCC4)cc3)n2)cc1OC [Example 11-82]
9,500 to 2000,COc1ccc(Nc2nc(-c3ccc(OC)c(OC)c3)cc3nccn23)cc1NC(=O)CN1CCOCC1 [Example 11-83]
10,< 500,COc1ccc(Nc2nc(-c3ccc(OC)c(OC)c3)cc3nccn23)cc1OC [Example 11-84]
11,< 500,COc1ccc(-c2cc3nccn3c(Nc3ccc(Br)cc3C(=O)O)n2)cc1OC [Example 11-85]
12,< 500,COC(=O)c1cc(Br)ccc1Nc1nc(-c2ccc(OC)c(OC)c2)cc2nccn12 [Example 11-86]
13,< 500,COc1ccc(-c2cc3nccn3c(Nc3ccc(Br)cc3F)n2)cc1OC [Example 11-87]
14,< 500,COc1ccc(-c2cc3nccn3c(Nc3ccc(Br)cc3Cl)n2)cc1OC [Example 11-88]
15,< 500,COc1ccc(-c2cc3nccn3c(Nc3ccc4[nH]c(=O)[nH]c4c3)n2)cc1OC [Example 11-89]
16,< 500,COc1ccc(-c2cc3nccn3c(Nc3ccc(NCCCN4CCOCC4)cc3)n2)cc1OC [Example 11-90]
17,< 500,COc1ccc(-c2cc3nccn3c(Nc3ccc(OCCN4CCOCC4)cc3)n2)cc1OC [Example 11-91]
18,< 500,COc1ccc(Nc2nc(-c3ccc(OC)c(OC)c3)cc3nccn23)cc1O [Example 11-92]
19,< 500,COc1ccc(Nc2nc(-c3ccc(OC)c(OC)c3)cc3nccn23)c(O)c1 [Example 11-93]
20,2000 to 10000,CCCCOc1ccc(Nc2nc(-c3ccc(OC)c(OC)c3)cc3nccn23)cc1 [Example 11-94]
21,< 500,COc1ccc(-c2cc3nccn3c(Nc3ccc(OC(F)(F)F)cc3)n2)cc1OC [Example 11-95]
22,< 500,COc1ccc(Nc2nc(-c3ccc(OC)c(OC)c3)cc3nccn23)c(C(N)=O)c1 [Example 11-96]
23,< 500,COc1ccc(-c2cc3nccn3c(Nc3ccc(Br)cc3C(N)=O)n2)cc1OC [Example 11-97]
24,< 500,COc1ccc(-c2cc3nccn3c(Nc3ccc(OC(C)C)cc3)n2)cc1OC [Example 11-98]
25,< 500,CNC(=O)c1ccccc1Nc1nc(-c2ccc(OC)c(OC)c2)cc2nccn12 [Example 11-99]
26,< 500,COc1ccc(Nc2nc(-c3ccc(OC)c(OC)c3)cc3nccn23)cc1F [Example 11-100]

row,IC50 [nM],SMILES
1,< 500,COc1ccc(-c2cc3ncnn3c(Nc3ccc(CCC(=O)O)cc3C(N)=O)n2)cc1OC [Example 11-101]
2,< 500,COc1ccc(-c2cc3ncnn3c(Nc3ccccc3C(N)=O)n2)cc1OC [Example 11-102]
3,< 500,COc1ccc(-c2cc3ncnn3c(Nc3ccc4cn[nH]c4c3)n2)cc1OC [Example 11-103]
4,< 500,COc1ccc(-c2cc3nccn3c(Nc3ccc(CCC(=O)O)cc3C(N)=O)n2)cc1OC [Example 11-104]
5,< 500,COc1ccc(-c2cc3nccn3c(Nc3ccc(CCCC(=O)O)cc3C(N)=O)n2)cc1OC [Example 11-105]
6,< 500,COc1ccc(-c2cc3ncnn3c(Nc3ccc(CCCC(=O)O)cc3C(N)=O)n2)cc1OC [Example 11-106]
7,< 500,COc1ccc(-c2cc3nccn3c(Nc3cc([N+](=O)[O-])ccc3C(N)=O)n2)cc1OC [Example 11-109]
8,< 500,COc1ccc(-c2cc3nccn3c(Nc3ccc(S(=O)(=O)NC(=N)N)cc3)n2)cc1OC [Example 11-110]
9,2000 to 10000,COc1ccc(Nc2nc(-c3ccc(OC)c(OC)c3)cc3nccn23)cc1NCCN1CCOCC1 [Example 11-111]
10,500 to 2000,COc1ccc(Nc2nc(-c3ccc(OC)c(OC)c3)cc3nccn23)cc1NCCN(C)CCO [Example 11-112]
11,< 500,COc1ccc(-c2cc3nccn3c(Nc3ccccc3S(N)(=O)=O)n2)cc1OC [Example 11-113]
12,< 500,COc1ccc(-c2cc3nccn3c(Nc3cccc(S(N)(=O)=O)c3)n2)cc1OC [Example 11-114]
13,< 500,COc1ccc(-c2cc3nccn3c(Nc3ccc(S(=O)(=O)N4CCCC4)cc3)n2)cc1OC [Example 11-115]
14,< 500,COc1ccc(-c2cc3nccn3c(Nc3ccc(S(=O)(=O)N4CCOCC4)cc3)n2)cc1OC [Example 11-116]
15,< 500,COc1ccc(-c2cc3nccn3c(Nc3ccc4c(c3)n(C)c(=O)n4C)n2)cc1OC [Example 11-117]
16,< 500,COc1ccc(-c2cc3nccn3c(Nc3ccc4c(c3)[nH]c(=O)n4C)n2)cc1OC [Example 11-118]
17,< 500,COc1ccc(-c2cc3nccn3c(Nc3ccccc3S(C)(=O)=O)n2)cc1OC [Example 11-119]
18,< 500,COc1ccc(-c2cc3nccn3c(Nc3cccc(S(C)(=O)=O)c3)n2)cc1OC [Example 11-120]
19,500 to 2000,COc1ccc(-c2cc3nccn3c(Nc3ccccc3C#N)n2)cc1OC [Example 11-121]
20,< 500,CNS(=O)(=O)c1ccccc1Nc1nc(-c2ccc(OC)c(OC)c2)cc2nccn12 [Example 11-122]
21,< 500,COc1ccc(-c2cc3nccn3c(Nc3ccccc3S(=O)(=O)N(C)C)n2)cc1OC [Example 11-123]
22,< 500,COc1ccc(-c2cc3nccn3c(Nc3cccc(N)c3)n2)cc1OC [Example 11-124]
23,500 to 2000,COC(=O)CCCc1ccc(N(C)c2nc(-c3ccc(OC)c(OC)c3)cc3nccn23)cc1 [Example 11-125]
24,< 500,COc1ccc(-c2cc3nccn3c(Nc3ccc(S(C)(=O)=O)cc3)n2)cc1OC [Example 11-127]
25,< 500,COc1ccc(-c2cc3nccn3c(Nc3ccc(C(N)=O)c(N)c3)n2)cc1OC [Example 11-129]
26,< 500,COc1ccc(-c2cc3nccn3c(Nc3cc(N)ccc3C(N)=O)n2)cc1OC [Example 11]
